Two molecules from ChEMBL document CHEMBL1127314, “A new potent and selective histamine H3 receptor agonist, 4-(1H-imidazol-4-ylmethyl)piperidine” (J Med Chem, 1994) can be followed below.

The nature of data set [1]: pD2 value was determined on jejunum preparations of eight different animals. It is filed as ADME, tissue-based.
Data set [2] addresses Histamine H3 receptor (Cavia porcellus) (UniProt Q9JI35). Description: KL value determined on H3 receptor.
For data set [3] the target is unchanged. Description: H3 receptor agonistic activity of the compound. In kind it is functional.
Data set [4] is described as follows: pKi log value determined for the guinea pig H1 receptor. It is filed as ADME.

SMILES strings stand for the structures.

Sequence of Histamine H3 receptor (Cavia porcellus) (Q9JI35 whole entry): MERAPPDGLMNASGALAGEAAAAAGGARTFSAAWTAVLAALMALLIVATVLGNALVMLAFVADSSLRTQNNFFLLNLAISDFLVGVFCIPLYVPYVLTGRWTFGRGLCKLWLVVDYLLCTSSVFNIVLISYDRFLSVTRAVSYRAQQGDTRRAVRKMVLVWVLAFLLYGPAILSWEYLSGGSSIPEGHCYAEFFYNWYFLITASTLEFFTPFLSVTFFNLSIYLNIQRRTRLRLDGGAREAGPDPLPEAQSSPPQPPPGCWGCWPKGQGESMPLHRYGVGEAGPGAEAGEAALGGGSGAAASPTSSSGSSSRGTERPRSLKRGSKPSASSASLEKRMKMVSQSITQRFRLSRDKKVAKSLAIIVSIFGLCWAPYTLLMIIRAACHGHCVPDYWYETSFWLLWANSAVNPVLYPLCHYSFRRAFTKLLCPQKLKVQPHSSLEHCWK

In turn, `c1nc(CC2CCNCC2)c[nH]1` [IMMEPIP] yielded a pD2 in data set [1] of 8. This molecule also had a KL in data set [2] of 1.01 µM. Moreover, the KH in data set [3] amounted to 2.7 nM. Besides, in data set [4], the “Log Ki” value is -4.79.

Regarding `C[C@@H](N)Cc1c[nH]cn1`, in data set [1], the pD2 worked out at 7.8. This molecule also registered a KL in data set [2] of 0.22 µM. In addition, the KH in data set [3] was determined as 4.3 nM.
